In DBAASP one finds MIC data, which are given here for twelve compounds.

Structures are written as SMILES. Converted amounts (≈) assume the structure as drawn. Some results are limits rather than exact numbers.

Among the test systems are Bacillus subtilis 168; Staphylococcus aureus; Escherichia coli B; Pseudomonas aeruginosa; Leuconostoc lactis; Bacillus cereus; Shigella dysenteriae; Streptococcus mutans.
Assay in all cases: ≥ marks a high value that may be exact or a test limit, other limits are often not marked, values filed in µg/mL are converted to µM
In assay [1] the test system is Escherichia coli K12 MG1655.
The subject of assay [2] is Staphylococcus aureus ATCC 25923.
Assay [3] deals with Candida albicans ATCC 90028.
Assay [4] concerns Escherichia coli ATCC 25726.
Assay [5] deals with Staphylococcus aureus NCTC 8325.
Assay [6] has as its system Escherichia coli ATCC 25922.
The subject of assay [7] is Candida albicans F7-39/IDE99.
Assay [8] relates to Enterococcus faecalis ATCC 29212.
The test system of assay [9] is Staphylococcus aureus ATCC 2592.
The subject of assay [10] is Candida albicans ATCC 2002.

For orientation: MIC means the least concentration at which growth counts as inhibited. A lower MIC goes with a more susceptible organism. In turn, `CC[C@H](C)[C@H](NC(=O)[C@H](C)N)C(=O)N[C@@H](C)C(=O)N[C@@H](CCCN=C(N)N)C(=O)N[C@H](C(=O)N[C@@H](CCCN=C(N)N)C(=O)N[C@@H](CCCN=C(N)N)C(=O)N[C@@H](CCCN=C(N)N)C(=O)N[C@@H](CC(C)C)C(=O)N[C@@H](CC(C)C)C(=O)N[C@@H](CC(C)C)C(=O)N[C@@H](Cc1ccc(O)cc1)C(=O)N[C@@H](CC(C)C)C(=O)N[C@@H](CC(C)C)C(=O)N[C@@H](C)C(=O)O)[C@@H](C)O` [AIARTRRRLLLYLLA] came in with an MIC in assay [1] of no less than 71.1 µM.
Turning to `CC[C@H](C)[C@H](NC(=O)CN)C(=O)NCC(=O)N[C@@H](CCCCN)C(=O)N[C@@H](Cc1ccccc1)C(=O)N[C@@H](CC(C)C)C(=O)N[C@@H](Cc1cnc[nH]1)C(=O)N[C@@H](CO)C(=O)N[C@@H](C)C(=O)NCC(=O)N[C@@H](CCCCN)C(=O)N[C@@H](Cc1ccccc1)C(=O)NCC(=O)N[C@@H](CCCCN)C(=O)N[C@@H](C)C(=O)N[C@@H](Cc1ccccc1)C(=O)N[C@H](C(=O)NCC(=O)N[C@@H](CCC(=O)O)C(=O)N[C@H](C(=O)N[C@@H](CCSC)C(=O)N[C@@H](CCCCN)C(=O)N[C@@H](CO)C(=O)O)[C@@H](C)CC)[C@@H](C)CC` [GIGKFLHSAGKFGKAFIGEIMKS], the MIC is 50 µM (≈ 121 µg/mL) in assay [2], 25 µM (≈ 60.6 µg/mL) in [3] and 12.5 µM (≈ 30.3 µg/mL) in assay [4].
With `CC[C@H](C)[C@H](NC(=O)CN)C(=O)N[C@@H](CC(C)C)C(=O)N[C@@H](CO)C(=O)N[C@@H](CO)C(=O)N[C@H](C(=O)N[C@@H](CCCCN)C(=O)NCC(=O)N[C@H](C(=O)N[C@@H](C)C(=O)N[C@@H](CCCCN)C(=O)NCC(=O)N[C@H](C(=O)N[C@@H](C)C(=O)N[C@@H](CCCCN)C(=O)N[C@@H](CC(N)=O)C(=O)N[C@H](C(=O)N[C@@H](C)C(=O)N[C@@H](C)C(=O)N[C@@H](CCC(N)=O)C(=O)N[C@@H](CC(C)C)C(=O)N[C@@H](CC(C)C)C(=O)N[C@@H](CC(=O)O)C(=O)N[C@H](C(=O)N[C@@H](CC(C)C)C(=O)N[C@@H](CCCCN)C(=O)N[C@H]1CSSC[C@@H](C(=O)O)NC(=O)CNC(=O)[C@H]([C@@H](C)O)NC(=O)[C@H]([C@@H](C)CC)NC(=O)[C@H](CCCCN)NC1=O)[C@@H](C)O)C(C)C)C(C)C)C(C)C)[C@@H](C)CC` [GILSSIKGVAKGVAKNVAAQLLDTLKCKITGC], the MIC was 6 µM (≈ 19.2 µg/mL) in [2]; no less than 62 µM in assay [3]; 4 µM (≈ 12.8 µg/mL) in [5]; 6 µM (≈ 19.2 µg/mL) in assay [4]; 4 µM (≈ 12.8 µg/mL) in assay [6].
On to `CC[C@H](C)[C@H](NC(=O)[C@H](CC(C)C)NC(=O)[C@H](Cc1cnc[nH]1)NC(=O)CNC(=O)[C@H](CC(C)C)NC(=O)[C@@H](NC(=O)[C@H](CCCCN)NC(=O)[C@H](CO)NC(=O)[C@H](Cc1c[nH]c2ccccc12)NC(=O)[C@H](CCCCN)NC(=O)CN)[C@@H](C)CC)C(=O)N[C@@H](CCCN=C(N)N)C(N)=O` [GKWSKILGHLIR], for which the MIC in assay [7] turned out to be 7.4 µM (≈ 10.4 µg/mL); in the assay with Bacillus subtilis 168, 2 µM (≈ 2.81 µg/mL); in the assay with Staphylococcus aureus it was 23.3 µM (≈ 32.8 µg/mL); against Escherichia coli B it was 3.7 µM (≈ 5.2 µg/mL); in the assay with Pseudomonas aeruginosa, 71.7 µM (≈ 101 µg/mL).
In the case of `CC[C@H](C)[C@H](NC(=O)CNC(=O)[C@@H](NC(=O)[C@@H](NC(=O)[C@H](Cc1cnc[nH]1)NC(=O)[C@H](CCCCN)NC(=O)[C@H](C)NC(=O)[C@H](CC(C)C)NC(=O)[C@H](CC(=O)O)NC(=O)[C@H](CC(C)C)NC(=O)[C@H](CC(C)C)NC(=O)CN)C(C)C)[C@@H](C)CC)C(=O)N[C@@H](C)C(=O)N[C@@H](CO)C(=O)N[C@@H](CCCCN)C(=O)N[C@@H](CC(C)C)C(N)=O` [GLLDLAKHVIGIASKL], the values for the MIC (in the assay with Leuconostoc lactis; in [8]) were no less than 100 µM and 100 µM (≈ 165 µg/mL), respectively.
As to `CC[C@H](C)[C@H](N)C(=O)N[C@H](C(=O)N[C@H](C(=O)N1CCC[C@H]1C(=O)N1CCC[C@H]1C(=O)N[C@H](C(=O)N[C@H](C(=O)N[C@@H](CCCCN)C(=O)N[C@@H](CC(=O)O)C(=O)N[C@H](C(=O)N[C@@H](CC(C)C)C(=O)N[C@@H](CCCCN)C(=O)N[C@@H](CCCCN)C(=O)N[C@@H](Cc1ccccc1)C(=O)N[C@H](C(=O)N[C@@H](CCCCN)C(=O)NCC(=O)N[C@@H](C)C(=O)N[C@H](C(=O)N[C@@H](CO)C(=O)N[C@@H](CO)C(=O)N[C@H](C(=O)N[C@@H](CCSC)C(N)=O)C(C)C)[C@@H](C)CC)[C@@H](C)CC)[C@@H](C)O)C(C)C)[C@@H](C)CC)[C@@H](C)CC)[C@@H](C)O` [ITIPPIVKDTLKKFIKGAISSVM], the results for the MIC in [2] and in assay [4] were 20 µM (≈ 50 µg/mL) and no less than 40 µM, respectively.
On to `CC[C@H](C)[C@H](N)C(=O)N[C@H](C(=O)N[C@H](C(=O)N1CCC[C@H]1C(=O)N1CCC[C@H]1C(=O)N[C@H](C(=O)N[C@H](C(=O)N[C@@H](CCCCN)C(=O)N[C@@H](CC(N)=O)C(=O)N[C@H](C(=O)N[C@@H](CC(C)C)C(=O)N[C@@H](CCCCN)C(=O)N[C@@H](CCCCN)C(=O)N[C@@H](Cc1ccccc1)C(=O)N[C@H](C(=O)N[C@@H](CCCCN)C(=O)NCC(=O)N[C@@H](C)C(=O)N[C@H](C(=O)N[C@@H](CO)C(=O)N[C@@H](C)C(=O)N[C@@H](CC(C)C)C(=O)N[C@@H](CCSC)C(=O)N[C@@H](CO)C(=O)O)C(C)C)[C@@H](C)CC)[C@@H](C)O)C(C)C)[C@@H](C)CC)[C@@H](C)CC)[C@@H](C)O` [ITIPPIVKNTLKKFIKGAVSALMS], for which the values for the minimal inhibitory concentration (MIC) in [2] and in assay [4] were 10 µM (≈ 25.7 µg/mL) and no less than 40 µM, respectively.
For the compound `CSCC[C@@H]1NC(=O)[C@H](C(C)C)NC(=O)[C@H](C)NC(=O)[C@H](CCCN=C(N)N)NC(=O)[C@H](Cc2ccccc2)NC(=O)CNC(=O)CNC(=O)[C@H](CCCCN)NC(=O)[C@@H](NC(=O)[C@H](CCCN=C(N)N)NC(=O)[C@@H]2CCCN2C(=O)[C@H](CCSC)NC(=O)[C@H](CO)NC(=O)[C@H](Cc2ccc(O)cc2)NC(=O)[C@H](C)NC(=O)[C@@H](N)CCCCN)CSSC[C@@H](C(=O)N[C@@H](Cc2c[nH]c3ccccc23)C(=O)N[C@@H](CC(C)C)C(N)=O)NC1=O` [KAYSMPRCKGGFRAVMCWL], the MIC was found to be 11.3 µM (≈ 25 µg/mL) in assay [9]; 22.7 µM (≈ 49.9 µg/mL) against Bacillus cereus; 5.67 µM (≈ 12.5 µg/mL) in assay [6]; 5.67 µM (≈ 12.5 µg/mL) in the assay on Shigella dysenteriae; 22.7 µM (≈ 49.9 µg/mL) against Pseudomonas aeruginosa; 22.7 µM (≈ 49.9 µg/mL) in assay [10].
In the case of `CSCC[C@H](NC(=O)CNC(=O)[C@H](Cc1ccccc1)NC(=O)[C@@H](N)CC(C)C)C(=O)N[C@@H](C)C(=O)N[C@@H](CC(C)C)C(=O)N[C@@H](CCCCN)C(=O)N[C@@H](CC(C)C)C(=O)N[C@@H](CC(C)C)C(=O)N[C@@H](CCCCN)C(=O)N[C@@H](CCCCN)C(=O)N[C@H](C(=O)N[C@@H](CC(C)C)C(N)=O)C(C)C` [LFGMALKLLKKVL], the MIC was 10 µM (≈ 14.7 µg/mL) in assay [7]; 1.5 µM (≈ 2.21 µg/mL) in the assay with Bacillus subtilis 168; 2.3 µM (≈ 3.39 µg/mL) with Staphylococcus aureus; 3.8 µM (≈ 5.6 µg/mL) in the assay on Escherichia coli B; 50 µM (≈ 73.6 µg/mL) in the assay with Pseudomonas aeruginosa.
`CC(C)C[C@H](NC(=O)[C@H](C)NC(=O)[C@@H](N)CC(N)=O)C(=O)N[C@@H](CO)C(=O)N[C@@H](CO)C(=O)N1CCC[C@H]1C(=O)N[C@@H](CCCN=C(N)N)C(=O)N[C@@H](CC(N)=O)C(=O)N[C@@H](CCCCN)C(=O)N[C@H]1CSSC[C@@H](C(=O)N[C@@H](Cc2ccccc2)C(=O)NCC(=O)O)NC(=O)[C@H](CO)NC(=O)[C@H](CO)NC(=O)[C@H](C)NC(=O)[C@H](CCCN=C(N)N)NC(=O)[C@H](CC(=O)O)NC1=O` [NALSSPRNKCDRASSCFG]: the MIC in assay [9] is 3.27 µM (≈ 6.24 µg/mL); in the assay on Bacillus cereus, 6.53 µM (≈ 12.5 µg/mL); in assay [6], 26.1 µM (≈ 49.9 µg/mL); in the assay on Shigella dysenteriae, 1.62 µM (≈ 3.1 µg/mL); in the assay with Pseudomonas aeruginosa it was 3.27 µM (≈ 6.25 µg/mL); in [10], 3.27 µM (≈ 6.24 µg/mL).
As for `NC(=O)[C@H](Cc1ccccc1)NC(=O)[C@H](Cc1c[nH]c2ccccc12)NC(=O)[C@H](Cc1c[nH]c2ccccc12)NC(=O)[C@H](Cc1c[nH]c2ccccc12)NC(=O)[C@H](CCCN=C(N)N)NC(=O)[C@H](CCCN=C(N)N)NC(=O)[C@H](CCCN=C(N)N)NC(=O)[C@H](Cc1ccccc1)NC(=O)[C@H](Cc1c[nH]c2ccccc12)NC(=O)[C@H](Cc1c[nH]c2ccccc12)NC(=O)[C@H](Cc1c[nH]c2ccccc12)NC(=O)[C@H](CCCN=C(N)N)NC(=O)[C@H](CCCN=C(N)N)NC(=O)[C@@H](N)CCCN=C(N)N` [RRRWWWFRRRWWWF], in the assay on Streptococcus mutans, the MIC was determined as 6.76 µM (≈ 16 µg/mL).
In the assay on Streptococcus mutans, `NC(N)=NCCC[C@H](NC(=O)[C@H](Cc1c[nH]c2ccccc12)NC(=O)[C@H](CCCN=C(N)N)NC(=O)[C@H](Cc1c[nH]c2ccccc12)NC(=O)[C@H](CCCN=C(N)N)NC(=O)[C@H](Cc1c[nH]c2ccccc12)NC(=O)[C@@H](N)CCCN=C(N)N)C(=O)O` [RWRWRWR] gave an MIC of 26.6 µM (≈ 32 µg/mL).
